# Measurements: patent publication US11931380B2, “Inhibition of diacylglycerol kinase to augment adoptive T cell transfer” (THE TRUSTEES OF THE UNIVERSITY OF PENNSYLVANIA, priority 2012, dated 2024)
# Legend:
# DGK [1] = settings: freshly isolated human TIL, renal cell cancers; cited from earlier work
# DGK [2] = assay: Lysis of EM-meso-luc cells by antigen-exposed human mesoCAR T cells with or without DGK inhibitors; format: cell-based; settings: 5 μg/mL inhibitor, 18 hours, after 96 hours exposure to EM-meso
# Description: Primary human T cells were obtained and mock infected or transduced with lentivirus expressing mesoCAR as previously described (Moon et al., 2011, Clin Cancer Res 17:4719-30). A total of 5×10^6 T cells were subsequently added to 24-well plates that had been seeded with 5×10^5 cells either from the epithelial mesothelioma (EM) human mesothelioma line or a stable derivative cell line, EM-meso, engineered to express high levels of mesothelin, in a 24-well dish. […] Cells were assessed for viability using Trypan blue, and 1×10^5 live T cells were cocultured with 5×10^3 EM-meso-luc cells expressing luciferase in 96-well plates in the presence or absence of the DGK inhibitors DGK1 (R59022) or DGK2 (R59949; Sigma) at 5 μg/mL. After 18 hours, remaining tumor cells were washed and lysed, and luminescence was evaluated. Cell lysate determinations were corroborated with visual estimate of remaining numbers of tumor cells.
# DGK [3] = assay: DGK inhibitor effect on killing activity of human CAR-TIL; format: cell-based; settings: preliminary observations
# Description: In addition, experiments were conducted to mimic potential human trials in which mice with established tumors were injected intravenously with 10^7 wild type T cells or the three types of DGK knockout T cells. […] Preliminary relevant observations in human CAR T cells have been recorded using a commercially available DGK inhibitor (R59022). Human mesothelin-CAR T cells mixed with human mesothelin tumor cells (at a 1:1 ratio) were injected into immunodeficient mice. The tumor growth was slowed, but not prevented by the CAR-T cells. After 2-3 weeks, tumors were harvested and the human CAR-T cells were purified. When these T cells (Tumor infiltrating lymphocytes, or TILs) are allowed to react with fresh tumors, they can kill only 5-10% of the tumor cells showing they are hypofunctional compared to freshly made CAR-T cells which kill 70% of tumor cells (FIG. 15).
SMILES,TIL function (DGK [1]),cytotoxicity of mesothelin-exposed mesoCAR T cells (DGK [2]),function (killing activity) of human CAR-TIL (DGK [3])
Cc1nc2sccn2c(=O)c1CCN1CCC(=C(c2ccccc2)c2ccc(F)cc2)CC1 [R59022],improve TIL function,reverse the impaired cytotoxicity,augments function
O=c1c2ccccc2[nH]c(=S)n1CCN1CCC(=C(c2ccc(F)cc2)c2ccc(F)cc2)CC1 [R59949],,reverse the impaired cytotoxicity,
